Measured values from US20050152835A1, “Technetium-99M glucarate methods of use for monitoring tissues” (priority 2003, published 2005).

What was measured:
MCF7/S tumor xenograft = assay: FASTSPECT dynamic imaging and tumor washout kinetics, drug-sensitive xenograft; type: in vivo, SCID mice
Protocol: (§1) Tumor cell lines used. MCF7/S: Cells are parental, drug (doxorubicin) sensitive, breast carcinoma cells. MCF7/D40: Cells were generated in vitro by successive culturing parental MCF7 cells in slowly increasing concentrations of doxorubicin with a total selection time of 31 months. Twenty-eight SCID mice were studied. MCF7/S or MCF7/D40 tumors were grown for 10-14 days after subcutaneous injection of 1×10^6 cells into the right thigh. Groups of mice with the xenografted tumors included: (MCF7/S group: MIBI: n=9; GLA: n=8) and (MCF7/D40 group: MIBI: n=6; GLA: n=5).
The dynamic imaging system SPECT consisted of 24 small modular gamma cameras. Each modular camera consists of a 10 cm×10 cm NaI(Tl) scintillation crystal, 4 square (5 cm×5 cm) Hamamatsu photomultiplier tubes. The system included a cylindrical aperture with twenty four 1-mm diameter pinholes drilled in the aperture. A point source in the center of the field of view is projected simultaneously to the center of each camera. Total magnification is 3.5 in a 3.0 cm×3.2 cm×3.2 cm field of view. The spatial resolution of the system is about 1.0 mm, with a sensitivity of 13.3 cps/μCi.
(§2) ^99mTc-GLA or ^99mTc-MIBI (5-8 mCi, 185-296 MBq) was injected via a jugular vein catheter. Dynamic images were acquired for 2 hours. Twenty-four projections were obtained, one from each camera. Each scintillation event within the camera's NaI crystal was registered as the digitized outputs from the camera's four photomultiplier tubes. The four photomultiplier outputs were compared to a 20-bit look-up table derived from a calibration procedure that involved moving a collimated source across the camera face.
Tumor image reconstruction was performed using 100 iterations of the maximum-likelihood expectation-maximization (ML-EM) algorithm. Using SlicerDicer software, three-dimensional images were computed to provide images in a 33×49×49 voxels format, and generate tomographic transaxial, coronal and sagittal slices with one-pixel thickness (1.0 mm). Regions of interest (ROI) over the tumors were created and applied to the dynamic images for determining time-activity curves. The percent washout rate relative to the peak uptake of the tumors were calculated.

BT20 tumors = settings: cited from earlier work
MCF7/S tumors = assay: Biodistribution in mice bearing MCF7/S tumors; type: in vivo, SCID mice
Protocol: as §1, §2
(§3) Tumors and organs were harvested and counted in a dose calibrator. The percent injected dose per gram (% ID/g) was calculated. Membrane preparations made from MCF7/S and MCF7/D40 tumors were immunoblotted with the mouse monoclonal antibody C219 against Pgp followed by a secondary antibody, which was detected by chemiluminescence. […] No immunodetectable MDR1 Pgp was presented in MCF7/S cells.

MCF7/D40 tumors = assay: Biodistribution in mice bearing MCF7/D40 tumors; type: in vivo, SCID mice
Protocol: as §1, §2, §3

[1] = test system: plasmocytoma (localized myeloma); assay: Scintigraphy of a patient with plasmocytoma of T8; type: in vivo, human
Protocol: A patient complaining of invalidation pain in the spine (mid-thorax) for about two months. Peak of monoclonal IgG-k in serum. Bence-Jones protein in urine. Spine CT. lytic lesion of T8, with soft tissue infiltration. […] Uptake was obvious in the early images, 15 and 30 min p.i., late acquisition, 6 hr p.i., made the tracer uptake much more obvious.

[2] = Table 2, MCF7/S mice, 2 hours after injection
[3] = Table 4 (Example 3), MCF7/S mice
[4] = Table 2, MCF7/D40 mice, 2 hours after injection
[5] = Table 4 (Example 3), MCF7/D40 mice

With ^99mTc-glucarate the “two-hour fractional washout (% peak activity)” value (MCF7/S tumor xenograft) was 72.8±3.1%, the “time after injection at which tumor was first visualized/detected” value (MCF7/S tumor xenograft; FASTSPECT) was no more than 5 min and the “time after injection until which tumor stayed visualized/detectable” value (MCF7/S tumor xenograft; FASTSPECT, 120 min acquisition) was “at least 120 min”. The “tumor uptake compared with 99mTc-DTPA” value (BT20 tumors; BT20 breast tumors) was “significantly greater”, the “tumor to non-tumor (shoulder region tissue) ratio” value (BT20 tumors; twelve hours after intravenous injection) was 20.53 and the “tumor uptake compared with 99mTc-sestamibi” value (BT20 tumors; xenografted BT20 tumors) was “significantly higher uptake”. For the same substance, the “tumor-to-muscle ratio relative to that for 99mTc-sestamibi (fold higher)” value (MCF7/S tumors; MCF7/S tumors, 2 hours after injection) was 9.4 fold, the “Biodistribution, blood” value (MCF7/S tumors; [2]) was 1.13 ± 0.16 % ID/gm and the “Biodistribution, heart” value (MCF7/S tumors; [2]) was 0.64 ± 0.08 % ID/gm. The “Biodistribution, kidneys” value (MCF7/S tumors; [2]) was 22.70 ± 1.38 % ID/gm, the “Biodistribution, liver” value (MCF7/S tumors; [2]) was 2.04 ± 0.37 % ID/gm and the “Biodistribution, lung” value (MCF7/S tumors; [2]) was 1.08 ± 0.10 % ID/gm. For the same substance, the “Biodistribution, muscle” value (MCF7/S tumors; [2]) was 0.27 ± 0.02 % ID/gm, the “Biodistribution, tumor” value (MCF7/S tumors; [2]) was 1.15 ± 0.17 % ID/gm and the “Biodistribution, blood” value (MCF7/S tumors; [3]) was 1.19 ± 0.17 % ID/g. For the same substance, the “Biodistribution, heart” value (MCF7/S tumors; [3]) was 0.70 ± 0.09 % ID/g, the “Biodistribution, kidneys” value (MCF7/S tumors; [3]) was 22.59 ± 1.38 % ID/g and the “Biodistribution, liver” value (MCF7/S tumors; [3]) was 2.10 ± 0.35 % ID/g. For the same substance, the “Biodistribution, lung” value (MCF7/S tumors; [3]) was 1.15 ± 0.11 % ID/g, the “Biodistribution, muscle” value (MCF7/S tumors; [3]) was 0.29 ± 0.02 % ID/g and the “Biodistribution, tumor” value (MCF7/S tumors; [3]) was 1.16 ± 0.17 % ID/g. For the same substance, the Tumor/Blood ratio (MCF7/S tumors; [3]) was 1.13 ± 0.23, the Tumor/Muscle ratio (MCF7/S tumors; [3]) was 4.37 ± 0.89 and the mean tumor-to-muscle ratio (MCF7/S tumors; drug-sensitive tumors (MCF7/S)) was 4.5. For the same substance, the “tumor-to-muscle ratio relative to that for 99mTc-sestamibi (fold higher)” value (MCF7/D40 tumors; MCF7/D40 tumors, 2 hours after injection) was 19.2 fold, the “Biodistribution, blood” value (MCF7/D40 tumors; [4]) was 1.07 ± 0.14 % ID/gm and the “Biodistribution, heart” value (MCF7/D40 tumors; [4]) was 0.55 ± 0.10 % ID/gm. The “Biodistribution, kidneys” value (MCF7/D40 tumors; [4]) was 22.10 ± 1.59 % ID/gm, the “Biodistribution, liver” value (MCF7/D40 tumors; [4]) was 1.56 ± 0.18 % ID/gm and the “Biodistribution, lung” value (MCF7/D40 tumors; [4]) was 1.41 ± 0.54 % ID/gm. For the same substance, the “Biodistribution, muscle” value (MCF7/D40 tumors; [4]) was 0.25 ± 0.04 % ID/gm, the “Biodistribution, tumor” value (MCF7/D40 tumors; [4]) was 1.39 ± 0.12 % ID/gm and the “Biodistribution, blood” value (MCF7/D40 tumors; [5]) was 1.07 ± 0.14 % ID/g. For the same substance, the “Biodistribution, heart” value (MCF7/D40 tumors; [5]) was 0.55 ± 0.1 % ID/g, the “Biodistribution, kidneys” value (MCF7/D40 tumors; [5]) was 22.10 ± 1.59 % ID/g and the “Biodistribution, liver” value (MCF7/D40 tumors; [5]) was 1.56 ± 0.18 % ID/g. The “Biodistribution, lung” value (MCF7/D40 tumors; [5]) was 1.41 ± 0.54 % ID/g, the “Biodistribution, muscle” value (MCF7/D40 tumors; [5]) was 0.25 ± 0.04 % ID/g and the “Biodistribution, tumor” value (MCF7/D40 tumors; [5]) was 1.39 ± 0.12 % ID/g. It also gave a Tumor/Blood ratio (MCF7/D40 tumors; [5]) of 1.38 ± 0.19, a Tumor/Muscle ratio (MCF7/D40 tumors; [5]) of 6.23 ± 0.89 and a mean tumor-to-muscle ratio (MCF7/D40 tumors; drug-resistant tumors (MCF7/D40)) of 6.2. For the same substance, the “scan finding at diagnosis” value ([1]; patient with lytic lesion of T8, posterior view) was “focally increase tracer uptake in the bone lesion and in soft tissue” and the “scan finding after about 1 year of stabilization and external radiotherapy” value ([1]; posterior view) was “normal physiologic tracer distribution, without areas of focally increased uptake”.
